Reference: patent US11420962B2, “Indene derivatives useful in treating pain and inflammation” (TARO PHARMACEUTICALS INC., priority 2018, dated 2022)
pEC50, pIC50: −log10 of the molar value.

What was measured:
T cells = test: T cell proliferation (anti-CD3/anti-CD28 dynabeads, CCK-8); type: cell-based, mice; conditions: Table 4, mouse T cells, 72 hours after dynabeads, read-out: Scoring (IC50, cell proliferation)
Method: Spleens were obtained from six male, CD-1 outbred mice, approximately 8 weeks old. Cells were harvested under sterile conditions by forcing each spleen though a cell filter (pore size 100 μm diameter). A homogenous cell suspension was obtained by washing the cells in fresh medium and passing cells through a smaller cell filter (pore size 70 μm).
Untouched T cells were isolated using the Pan T cell isolation kit (Miltenyi Biotech). Briefly, cells were counted and incubated with the required volume of antibody cocktail for 5 minutes at 4° C. before addition of microbeads and incubation for 10 minutes at 4° C. Labeled cells were retained in a magnetic column while unlabeled cells (T cells) passed through the column and were retained for use in the assay.
Cell viability was assessed by Trypan Blue exclusion and found to be >99% prior to transfer to plates. Isolated T cells were seeded out in 96 well plates at a density of 50,000 cells per well and allowed to incubate for 60 minutes in a humidified cell culture (37° C., 5% CO2) incubator prior to compound treatment. The media used for this assay (TexMACS, Miltenyi Biotech) was previously optimized for proliferation of T cells in serum free conditions.
Representative compounds of the invention (i.e., test compounds) were prepared as 30 mM stocks in 100% DMSO. Test compounds were initially diluted in media to yield 3 mM stocks before an additional 1:10 dilution in media was performed to yield working stocks of 300 μM (1% DMSO). Subsequent dilutions were performed in media (supplemented with 1% DMSO). When added to the assay plates (1:10 dilution), these yielded final concentrations in the assay plates of in 0.1% DMSO. The reference compound, Cyclosporin A, was prepared in an identical manner as above.
Unstimulated and Stimulated Control wells received an identical volume of TexMACS media/1% DMSO at this time, resulting in a final concentration of 0.1% DMSO across the plate. Mouse anti-CD3/anti-CD28 dynabeads were prepared (following the manufacturers' instructions) in TexMACS media and added to appropriate wells to achieve a final concentration of 1 bead per cell. Unstimulated Control wells then received an identical volume of TexMACS. Plates were centrifuged 72 hours after addition of dynabeads, (300×g for 3 minutes) to pellet the cells and 60% of the supernatant was removed to a fresh plate for analysis by ELISA. After removal of 60% of the supernatant for subsequent ELISA, cell proliferation was assessed using the CCK-8 assay.
Average response by the standard compound, cyclosporin A, was 1 uM.

Rat DRG = test: Rat dorsal root ganglion excitability response (EFS, Ca2+ transients); type: cell-based; conditions: Rattus norvegicus; Table 3; electrical field stimulation, Ca5 indicator; read-out: Scoring (EC50, Rat DRG excitability)
Procedure, shortened: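 Adult rat DRG cells cultured for 2 days were loaded with the Ca5 dye 1 h before electrical field stimulation under four protocols. Compounds were tested at six concentrations (typically top 30 μM, 1:3 steps, duplicate), added either 24 h before or directly before EFS. The read-out was the per-well peak/baseline fluorescence ratio change, with imaging used to check for toxicity.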

[1] = Metabolism by human liver microsomes; type: in vitro ADME; conditions: Table 8; 10 µM, in the presence of NADPH, 1 mg/mL protein
Procedure, shortened: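 Compound at 10 μM preincubated 10 min at 37 °C with human liver microsomes (1 mg/mL protein), 100 mM Tris HCl pH 7.5; started with 1 mM NADPH, run 60 min. Percent remaining at 60 min versus 0-time by LC-MS/MS analyte/internal-standard ratio, scored in bands.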

Mice (male, C57Bl/6) [2] = test: Formalin pain assay in mice; type: in vivo; conditions: Table 7; formalin 2.5%, left plantar
Method: Mice (male, C57BL/6) were placed singly in a Perspex chamber for approximately 30 min on three successive days to acclimate and thereby reduce stress-induced behaviors. On the fourth day, the experimental animals received a 25 μl injection of 2.5% formalin beneath the left plantar skin using a 29-gauge syringe. […] The total time spent on flinches/licking/biting of the hind paw was recorded by visual observation for every 5 min period/interval for total observation duration of 60 min in two phases, the early phase (0-5 min) and the late phase (15-40 min). Observers were blinded to the treatment group allocation.
For test compounds, the % protection from 0-60 min was used to assess activity. Scoring for the test compounds was as follows: “A” represents a % protection of 81 to 100%, “B” represents a % protection of 61 to 80%, “C” represents a % protection of 31 to 60% and “D” represents a % protection of 0 to 30%.

[3] = test system: Rats (male, Sprague-Dawley); test: Rat carrageenan-induced hyperalgesia and paw edema; type: in vivo; conditions: 10 mg/kg, given 1 h prior to carrageenan challenge
Method: Representative compounds of the invention (i.e., test compounds) were administered PO, QD for 3 days prior to carrageenan injection, once at 1 h prior to carrageen, or at 5 min or 1 h post-challenge to rats (male, Sprague-Dawley). Rats received either an intraplantar injection of saline (sham) or carrageen (0.1 mL of a 2% solution [w/v]) in the right hind paw. Mechanical hyperalgesia (using an analgesymeter) and paw volume (using a digital plethysmometer) were measured at baseline (0 hr), 2, 4 and 6 h post carrageenan injection for all the animals. Celecoxib, given 1 h prior to carrageen challenge, was used as a reference standard.

rats (male, Wistar) [4] = test: Complete Freund's Adjuvant (CFA) model of inflammatory pain in rats; type: in vivo; conditions: 30 mg/kg dose
Method: Representative compounds of the invention (i.e., test compounds) were tested in this model of inflammatory pain. The rats (male, Wistar) were acclimatized to the instruments (plantar test surface and dynamic plantar aesthesiometer) on two consecutive days prior to the initiation of the study. On Day 0, basal paw withdrawal latency and paw withdrawal threshold were taken and animals were randomized to different groups. Complete Freund's Adjuvant (CFA) at 1 mg/mL (0.1 mL) was injected into the plantar surface of right hind paw. Test compounds (3 or 30 mg/kg) were administered PO, twice (Day 0 and Day 1) or once, on Day 1 (24 h after CFA). Thermal hyperalgesia and mechanical allodynia were assessed at 0 (baseline), 1, 3 and 6 h after administration of the test compound on Day 1. Diclofenac was used as a reference compound, given once on Day 1.

[5] = test system: female Sprague-Dawley rats; test: Cyclophosphamide-induced cystitis in rats (visceral pain); type: in vivo; conditions: 300 mg/kg dose
Method: Representative compounds of the invention (i.e., test compounds) were administered to female Sprague-Dawley rats, for four days by oral gavage in 0.9% saline. Two hours after the fourth dose, the rats were challenged by intraperitoneal administration of cyclophosphamide (150 mg/kg). Referred mechanical sensitivity was measured four hours later by applying a series of eight von Frey filaments to the lower abdomen, three times each for 1-2 seconds with a 5 second interval between applications. Responses were scored (zero-no response; one-response, two-response and change of position, and three-response, change of position and licking the site or vocalization), totaled and the percent of maximal possible nociceptive score calculated. Ibuprofen was used as a reference standard.

male Sprague-Dawley rats = test: Rat chronic prostatitis/chronic pelvic pain (carrageenan); type: in vivo; conditions: 300 mg/kg
Method: Representative compounds of the invention (i.e., test compounds) were administered for 11 days by oral gavage in 0.9% saline (3, 10 or 30 mg/kg QD; 5 mL/kg dose volume) to male Sprague-Dawley rats. Carrageenan-mediated chronic prostatitis/chronic pelvic pain (CP/CPPS) established in rats (10 per group) by administration of an intraprostatic injection of carrageenan (˜12.5 μL/lobe of a 30 mg/mL solution) into both ventral prostate lobes, on Day 0. Referred mechanical sensitivity was measured on Days 0, 1, 3 and 7, 2 hours after test compound, or vehicle (saline) administration, by applying 6 von Frey filaments with increasing forces of 0.16-2 g to the scrotal skin area, 3 times each for 1-2 seconds, with a 5-second interval between applications. Responses were scored (zero-no response; one-reaction of the animal, two-jump, and three-licking the site) and expressed as the nociceptive threshold for each day of assessment. Ibuprofen was used as a reference standard.
According to the above assay, Compound Ia-1 restored nociceptive threshold to 65% of baseline on Day 3 at the 30 mg/kg dose as compared to the reference standard, ibuprofen (300 mg/kg), which restored the threshold to 120% of the baseline.

Mice (male, C57Bl/6) [6] = test: Bleomycin lung fibrosis; type: in vivo
Description: Mice (male, C57BL/6) were randomized into treatment groups and fibrosis was induced by intratracheal administration of bleomycin. Treatment with representative compounds of the invention (i.e., test compounds) or reference standard (pirfenidone) was initiated on Day −1 and administered daily unto Day 7 or Day 21. For groups undergoing bronchoalveolar lavage (BAL), the trachea was cannulated and infused with ice cold Hank's Balanced Salt Solution (HBSS, pH 7.2). The collected lavage fluid was analyzed for cell numbers (total and differential counts) and levels of soluble TGFβ and collagen. For other groups, the lungs were either snap-frozen or formalin-fixed for further analyses.

[7] = test system: Rats (male, Sprague-Dawley); test: TNBS colitis assay in rats; type: in vivo; conditions: 10 mg/kg dose
Method: TNBS Colitis Assay of Representative Compounds in Rats Rats (male, Sprague-Dawley) were anaesthetized and a solution of TNBS (48 mg/kg) in ethanol, was instilled intra-rectally to induce colitis, 1 h after oral dosing of representative compounds of the invention (i.e., test compounds). Test compounds were dosed PO, QD for 7 days, using prednisolone as a reference standard. […] On Day 7, rats were euthanized and the colon was evaluated for length, weight, wall thickness, ulcer number and length and for the presence of adhesions and strictures. A colonic score was calculated based on the severity of the colonic parameters.

rats (male, Wistar) [8] = test: Rat monosodium iodoacetate-induced osteoarthritis; type: in vivo
Method: Representative compounds of the invention (i.e., test compounds) were administered to rats (male, Wistar) PO, QD, at 3 or 30 mg/kg, starting on Day 0 through to Day 21 of the study. Osteoarthritis was modeled by intra-articular injection of 3 mg of monosodium iodoacetate (MIA) in the right knee. Knee swelling, paw withdrawal threshold (mechanical allodynia) and the difference in weight bearing were measured on Day 0 (pre-induction) and on Days 3, 7, 14 and 21 post-MIA injection. Tramadol was used as a reference standard.

[9] = test system: Rats (male, Sprague-Dawley); test: Spinal nerve ligation (neuropathic pain); type: in vivo; conditions: 10 mg/kg
Description: Rats (male, Sprague-Dawley) were anaesthetized and placed in a prone position and the left paraspinal muscles were separated from the spinous processes at the L6-S2 levels. The L6 transverse process was carefully removed to visually identify the L4-L6 spinal nerves. The left L5 spinal nerves were isolated and tightly ligated with 6-0 silk thread. The skin was sutured to close the open tissue and animals were allowed to recover for 1 week before pain assessment. Basal readings for mechanical allodynia and thermal hyperalgesia were performed using a dynamic plantar aesthesiometer and plantar test surface, respectively, before surgery. On Day 7 following surgery, mechanical allodynia and thermal hyperalgesia were assessed and animals were randomized into treatment groups based on these baseline readings. […] Thermal hyperalgesia and mechanical allodynia were tested at 0, 60 and 120 minutes post administration of compounds on Days 7 and 14.

SMILES: C=C1CC[C@H]2[C@H](CNCc3ccc4c(c3)OC(F)(F)O4)[C@@H]([C@@]3(C)Cc4cn[nH]c4C[C@@H]3CO)CC[C@]12C [Ia-3, ((5R,6S)-5-((3aS,4R,5S,7aS)-4-((((2,2-difluorobenzo[d][1,3]dioxol-5-yl)methyl)amino)methyl)-7a-methyl-1-methyleneoctahydro-1H-inden-5-yl)-5-methyl-4,5,6,7-tetrahydro-1H-indazol-6-yl)methanol]
- pIC50 (T cells): > 5.70
- pEC50 (Rat DRG): 5.22 to 5.70
- Scoring (% of drug remaining after 60 minutes, PDR60) [1]: D (a PDR^60 of 0 to 30%)

SMILES: CC(C)CCC[C@@H](C)[C@H]1CC[C@H]2[C@H](CN)[C@@H]([C@@]3(C)Cc4cn[nH]c4C[C@@H]3CO)CC[C@]12C [Ia-6, ((5R,6S)-5-((1R,3aS,4S,5S,7aR)-4-(aminomethyl)-7a-methyl-1-((R)-6-methylheptan-2-yl)octahydro-1H-inden-5-yl)-5-methyl-4,5,6,7-tetrahydro-1H-indazol-6-yl)methanol]
- pIC50 (T cells): > 5.70
- pEC50 (Rat DRG): 4.82 to 5.22
- Scoring (% of drug remaining after 60 minutes, PDR60) [1]: A (a PDR^60 of 81 to 100%)
- Scoring (% protection from 0-60 min) (Mice (male, C57Bl/6) [2]): C (a % protection of 31 to 60%)

SMILES: C=C1CC[C@H]2[C@H](CN)[C@@H]([C@@]3(C)Cc4c(C)n[nH]c4C[C@@H]3CO)CC[C@]12C [Ia-32, ((5R,6S)-5-((3aS,4R,5S,7aS)-4-(aminomethyl)-7a-methyl-1-methyleneoctahydro-1H-inden-5-yl)-3,5-dimethyl-4,5,6,7-tetrahydro-1H-indazol-6-yl)methanol]
- pIC50 (T cells): 4.82 to 5.22
- pEC50 (Rat DRG): < 4.82
- Scoring (% of drug remaining after 60 minutes, PDR60) [1]: B (a PDR^60 of 61 to 80%)
- Scoring (% protection from 0-60 min) (Mice (male, C57Bl/6) [2]): C (a % protection of 31 to 60%)

SMILES: Cc1ccc(-c2cc(C(F)(F)F)nn2-c2ccc(S(N)(=O)=O)cc2)cc1 [celecoxib, reference compound]
- increase in the paw withdrawal threshold [3]: 59%

SMILES: O=C(O)Cc1ccccc1Nc1c(Cl)cccc1Cl [diclofenac, reference compound]
- increase in the paw withdrawal threshold (rats (male, Wistar) [4]): 62%

SMILES: CC(C)Cc1ccc(C(C)C(=O)O)cc1 (stereo not drawn) [ibuprofen, reference compound]
- nociceptive threshold, % of baseline levels [5]: 123%
- nociceptive threshold restored, % of the baseline (male Sprague-Dawley rats): 120%

SMILES: Cc1ccc(=O)n(-c2ccccc2)c1 [pirfenidone, reference compound]
- reduction in BAL macrophages (Mice (male, C57Bl/6) [6]; Day 7, 100 mg/kg dose): 30%
- reduction in fibrosis (Mice (male, C57Bl/6) [6]; Day 14, 100 mg/kg dose): 46%

SMILES: C[C@]12C=CC(=O)C=C1CC[C@@H]1[C@@H]2[C@@H](O)C[C@@]2(C)[C@H]1CC[C@]2(O)C(=O)CO [prednisolone, reference compound]
- reduction of the colonic score [7]: 68%

SMILES: COc1cccc(C2(O)CCCCC2CN(C)C)c1 (stereo not drawn) [tramadol, reference compound]
- reduction difference in weight bearing as compared to the vehicle (rats (male, Wistar) [8]; 10 mg/kg): 79%
- reduction in knee diameter as compared to the vehicle (rats (male, Wistar) [8]; Day 3, 30 mg/kg): 11%
- overall increase in paw withdrawal threshold as compared to the vehicle [9]: 77%
